Laboratory results published in patent publication US20200339691A1, “PROTEINACEOUS MOLECULES AND USES THEREFOR” (priority 2018, published 2020).
“Also recorded” adds a separate entry of the source. Where a SMILES comes first, the peptide text is derived from it. The star is where a group is joined. Myristoyl = CCCCCCCCCCCCCC(=O)*

What was measured:
[1] = system: CD44^hiCD24^lo CSCs in MDA-MB-231 cells; test: FACS analysis of CD44^hiCD24^lo cancer stem cells in MDA-MB-231 cells treated with P1 analogues; assay type: cell-based, human; settings: 50 μM peptide, 48 hours; for CD44^hiCD24^lo CSCs (%) / COI, Live Single CD44^hiCD24^lo CSCs (Cell Count): n = 1; for Average Inhibition of CSCs (%) / CD44^hiCD24^lo CSCs (%) Repeat 1 / CD44^hiCD24^lo CSCs (%) Repeat 2 / CD44^hiCD24^lo CSCs (%) Repeat 3: n = 3
Method: Analogues of P1 (Table 6) were designed and synthesized in accordance with the procedure of Example 5. The ability of these analogues to inhibit cancer stem cells was determined using FACS analysis on MDA-MB-231 cells, which constitutively contain approximately 90% CD44^hiCD24^lo cancer stem cells, treated with the peptides.
Non-adherent cells were removed during the washing steps.

[2] = system: CD44^hiCD24^lo CSCs in MCF7 cells; test: FACS analysis of CD44^hiCD24^lo CSCs in MCF7 cells; assay type: cell-based, human; settings: 50 μM peptide, 48 hours
Method: (§1) P1 Analogues were synthesized in accordance with the procedure of Example 5. 4×10^4 MDA-MB-231 cells or 1×10^4 induced or non-induced MCF7 cells were seeded in a 12 well plate with 1 mL complete media overnight. Induced MCF7 cells were prepared by stimulating cells with PMA/TGF-β and incubating for 12 hours. Cells were treated with 50 μM test peptide (dissolved in water) for 48 hours. Cells were then washed twice with 1 mL PBS and harvested by trypsinisation. Non-adherent cells were removed during the washing steps. Adherent cells were collected, and were subsequently stained with anti-human CD44, CD24 and Hoechst 33342 antibodies on ice for 30 mins. FACS was performed on BD FACS LSRII to measure the percentage of CD44^hiCD24^lo CSCs by dividing CD44^hiCD24^lo events by total live cell counts (Hoechst negative population) (as described in Fillmore and Kuperwasser (2007) Breast Cancer Res, 9: 303). The percentage of viable cells was calculated by dividing total live cell events by total single cells as described previously (Siemann and Keng (1986), Cancer Res, 46: 3556-3559).

[3] = system: MCF7 cells; settings: MCF7 cells, 50 μM peptide, 48 hours
Method: as §1

[4] = system: induced MCF7 cells; test: FACS CSC inhibition in induced MCF7 cells; assay type: cell-based, human; settings: induced MCF7 cells (PMA/TGF-β), 50 μM peptide, 48 hours
Method: as §1

[5] = system: MDA-MB-231 cells; test: FACS analysis of the cancer stem cell phenotype (CD44^high/CD24^low) in response to P1, P2 and P3; assay type: cell-based, human; settings: 6.25-400 μM, 72 hours
Method: 5×10^4 MDA-MB-231 cells were seeded with 1 mL of complete DMEM in 12 well plates overnight. […] Samples were harvested by trypsinization followed by washing with DPBS containing 2% HI-FBS. FACS staining was performed using anti-human CD44-APC, anti-human CD24-PE, Hoechst and anti-human EpCAM antibody cocktails. Data was collected from a BD-FACSLSR-II flow cytometer. Treestar FlowJo was used for data analysis.

[6] = system: PD-L1; test: Immunofluorescence (confocal) of PD-L1 in MDA-MB-231 cells, Example 6; assay type: cell-based, human; settings: 50 μM, 72 hours
Method: (§2) Confocal laser scanning microscopy was employed to investigate the effect of P1, P2 and P3 (synthesized in accordance with Example 5) on the nuclear expression of PD-L1 and acetylated PD-L1 (PDL1-Ac) (FIG. 9).
(§3) 1×10^4 MDA-MB-231 cells were seeded onto coverslips in 12 well plates with DMEM media overnight. Cells were treated with 50 μM P1, P2, P3 or P4 or vehicle (water) for 72 hours. Treated cells were fixed with 3.7% formaldehyde, and then permeabilised by incubating with 1% Triton X-100 for 20 min. Cells were then probed with a rabbit anti-PD-L1 antibody (Santa Cruz Biotechnology) or rabbit anti-acetylated PD-L1 (generated as described above) and visualized with a donkey anti-rabbit AF 488. Cover slips were mounted on glass microscope slides with ProLong Diamond Antifade reagent (Life Technologies). Protein targets were localized using confocal laser scanning microscopy. Single 0.5 μm sections were obtained using a Leica DMI8 microscope using 100× oil immersion lens running LAX software. The final image was obtained by averaging four sequential images of the same section. Digital images were analyzed using ImageJ software as described above.

[7] = system: PD-L1 acetylated at lysine 263; test: Immunofluorescence (confocal) of acetylated PD-L1 in MDA-MB-231 cells, Example 6; assay type: cell-based, human; settings: 50 μM, 72 hours
Method: as §2, §3

[8] = system: PD-L1; test: Immunofluorescence of PD-L1 in MDA-MB-231 cells, Example 9; assay type: cell-based, human; settings: 50 μM, 72 hours
Method: (§4) 1×10^4 MDA-MB-231 cells were seeded onto coverslips in 12 well plates with DMEM media. Cells were treated with 50 μM P1, P2, P3 or P4 (synthesized in accordance with Example 5) or vehicle (water) for 72 hours. Cells were fixed with 3.7% formaldehyde and permeabilized with 2% Triton-X-100, then probed with primary mouse antibodies to CSV, DMNT1, H3K9me3 or 5-methylcytosine; primary goat antibodies to SNAI1, SETDB1 or ABCB5; or primary rabbit antibodies to PD-L1, EGFR, EHMT2; followed by the corresponding secondary antibody conjugated to anti-mouse Alexa-Fluor 568, anti-goat Alexa-Fluor 633 or anti-rabbit Alexa-Fluor 488. Confocal laser scanning microscopy was used to measure the TFI, TNFI and TCFI as described above. At least 20 individual cells were analyzed per sample.

[9] = system: cell surface vimentin (CSV); test: Immunofluorescence of CSV in MDA-MB-231 cells, Example 9; assay type: cell-based, human; settings: 50 μM, 72 hours
Method: as §4

[10] = system: EGFR; test: Immunofluorescence of EGFR in MDA-MB-231 cells; assay type: cell-based, human; settings: 50 μM, 72 hours
Method: as §4

[11] = system: DMNTI; test: Immunofluorescence of DMNTI in MDA-MB-231 cells; assay type: cell-based, human; settings: 50 μM, 72 hours
Method: Cells were treated with 50 μM P1, P2, P3 or P4 (synthesized in accordance with Example 5) or vehicle (water) for 72 hours. […] Confocal laser scanning microscopy was used to measure the […] and TCFI as described above. At least 20 individual cells were analyzed per sample.

[12] = system: PD-L2; test: Immunofluorescence of PD-L2 in MDA-MB-231 cells; assay type: cell-based, human; settings: 50 μM, 72 hours, relative to the control
Method: (§5) 1×10^4 MDA-MB-231 cells were treated with 50 μM P1, P2, P3 (synthesized in accordance with Example 5) or vehicle (water) for 72 hours. Cells were fixed with 3.7% formaldehyde and permeabilized with 2% Triton-X-100, then probed with a primary rabbit antibody to PD-L2, primary goat antibody to PD-L1 and primary mouse antibody to CSV, followed by the corresponding secondary antibody conjugated to anti-mouse Alexa-Fluor 568, anti-goat Alexa-Fluor 633 or anti-rabbit Alexa-Fluor 488. Confocal laser scanning microscopy was used to measure the TNFI and TCFI as described above. At least 20 individual cells were analyzed per sample.

[13] = system: PD-L1; test: Immunofluorescence of PD-L1 in MDA-MB-231 cells, Example 14; assay type: cell-based, human; settings: 50 μM, 72 hours
Method: as §5

CCCCCCCCCCCCCC(=O)N[C@@H](CC(C)C)C(=O)N[C@H](C(=O)N[C@@H](Cc1ccccc1)C(=O)N[C@H](C(=O)N[C@@H](Cc1ccccc1)C(=O)N[C@@H](CCCNC(=N)N)C(=O)N[C@@H](CC(C)C)C(=O)N[C@@H](CCCNC(=N)N)C(=O)N[C@@H](CCCCN)C(=O)NCC(=O)N[C@@H](CCCNC(=N)N)C(=O)N[C@@H](CCSC)C(=O)N[C@@H](CCSC)C(=O)N[C@@H](CC(=O)O)C(=O)N[C@H](C(=O)N[C@@H](CCCCN)C(=O)N[C@@H](CCCCN)C(N)=O)C(C)C)[C@@H](C)CC)[C@@H](C)O [Peptide P1, Myristoyl-LTFIFRLRKGRMMDVKK-NH2] (Myristoyl-LTFIFRLRKGRMMDVKK-NH2)
Inhibition of CSCs (%) Repeat 1 [1]: 93.33%
Inhibition of CSCs (%) Repeat 2 [1]: 89.97%
Inhibition of CSCs (%) Repeat 3 [1]: 90.28%
CD44^hiCD24^lo CSCs (%) [1]: 15.77%
COI, Live Single CD44^hiCD24^lo CSCs (Cell Count) [1]: 220
Average Inhibition of CSCs (%) [1]: 91.19%
CD44^hiCD24^lo CSCs (%) Repeat 1 [1]: 5.98%
CD44^hiCD24^lo CSCs (%) Repeat 2 [1]: 9.00%
CD44^hiCD24^lo CSCs (%) Repeat 3 [1]: 8.72%
CD44^hiCD24^lo CSC % [2]: 4.36%
COI/Single Cells/Live/CD44^hiCD24^lo CSCs Count [2]: 233
% Viable Cells [3]: 95.65%
COI Count [3]: 6567
COI/Single Cell Count [3]: 5585
COI/Single Cells/Live Count [3]: 5342
Total Count [3]: 10000
CSC inhibition (%) [4]: 38.10%
cancer stem cell phenotype (CD44^high/CD24^low) [5]: significantly inhibited
nuclear expression of PD-L1 [6]: inhibited
Fn/c of acetylated PD-L1 [7]: significantly reduced
total nuclear fluorescence intensity (TNFI) of acetylated PD-L1 [7]: significantly reduced
PD-L1 nuclear localization [8]: significantly inhibited
expression of CSV [9]: uniformly inhibited
expression of EGFR [10]: uniformly inhibited
expression / nuclear localization of DMNTI [11]: significantly abrogated
PD-L2 nuclear localization [12]: significantly inhibited
nuclear localization of PD-L1 [13]: significantly inhibited

CCCCCCCCCCCCCC(=O)N[C@@H](CC(C)C)C(=O)N[C@H](C(=O)N[C@@H](Cc1ccccc1)C(=O)N[C@H](C(=O)N[C@@H](Cc1ccccc1)C(=O)N[C@@H](CCCNC(=N)N)C(=O)N[C@@H](CC(C)C)C(=O)N[C@@H](CCCNC(=N)N)C(=O)N[C@@H](CCC(N)=O)C(=O)NCC(=O)N[C@@H](CCCNC(=N)N)C(=O)N[C@@H](CCSC)C(=O)N[C@@H](CCSC)C(=O)N[C@@H](CC(=O)O)C(=O)N[C@H](C(=O)N[C@@H](CCCCN)C(=O)N[C@@H](CCCCN)C(N)=O)C(C)C)[C@@H](C)CC)[C@@H](C)O [Peptide P2, Myristoyl-LTFIFRLRQGRMMDVKK-NH2] (Myristoyl-LTFIFRLRQGRMMDVKK-NH2)
Inhibition of CSCs (%) Repeat 1 [1]: 79.10%
Inhibition of CSCs (%) Repeat 2 [1]: 82.65%
Inhibition of CSCs (%) Repeat 3 [1]: 85.94%
CD44^hiCD24^lo CSCs (%) [1]: 13.99%
COI, Live Single CD44^hiCD24^lo CSCs (Cell Count) [1]: 616
Average Inhibition of CSCs (%) [1]: 82.56%
CD44^hiCD24^lo CSCs (%) Repeat 1 [1]: 18.73%
CD44^hiCD24^lo CSCs (%) Repeat 2 [1]: 15.56%
CD44^hiCD24^lo CSCs (%) Repeat 3 [1]: 12.62%
CD44^hiCD24^lo CSC % [2]: 2.82%
COI/Single Cells/Live/CD44^hiCD24^lo CSCs Count [2]: 123
% Viable Cells [3]: 97.19%
COI Count [3]: 5603
COI/Single Cell Count [3]: 4482
COI/Single Cells/Live Count [3]: 4356
Total Count [3]: 10000
CSC inhibition (%) [4]: 59.93%
cancer stem cell phenotype (CD44^high/CD24^low) [5]: significantly inhibited
nuclear expression of PD-L1 [6]: inhibited
Fn/c of acetylated PD-L1 [7]: significantly reduced
total nuclear fluorescence intensity (TNFI) of acetylated PD-L1 [7]: significantly reduced
PD-L1 nuclear localization [8]: significantly inhibited
expression of CSV [9]: uniformly inhibited
expression of EGFR [10]: uniformly inhibited
expression / nuclear localization of DMNTI [11]: significantly abrogated
PD-L2 nuclear localization [12]: significantly inhibited
nuclear localization of PD-L1 [13]: significantly inhibited

CCCCCCCCCCCCCC(=O)N[C@@H](CC(C)C)C(=O)N[C@H](C(=O)N[C@@H](Cc1ccccc1)C(=O)N[C@H](C(=O)N[C@@H](Cc1ccccc1)C(=O)N[C@@H](CCCNC(=N)N)C(=O)N[C@@H](CC(C)C)C(=O)N[C@@H](CCCNC(=N)N)C(=O)N[C@@H](CCCCNC(C)=O)C(=O)NCC(=O)N[C@@H](CCCNC(=N)N)C(=O)N[C@@H](CCSC)C(=O)N[C@@H](CCSC)C(=O)N[C@@H](CC(=O)O)C(=O)N[C@H](C(=O)N[C@@H](CCCCN)C(=O)N[C@@H](CCCCN)C(N)=O)C(C)C)[C@@H](C)CC)[C@@H](C)O [Peptide P3, Myristoyl-LTFIFRLRK(Ac)GRMMDVKK-NH2] (Myristoyl-LTFIFRLRK(Ac)GRMMDVKK-NH2)
Inhibition of CSCs (%) Repeat 1 [1]: 92.77%
Inhibition of CSCs (%) Repeat 2 [1]: 91.10%
Inhibition of CSCs (%) Repeat 3 [1]: 87.85%
CD44^hiCD24^lo CSCs (%) [1]: 8.04%
COI, Live Single CD44^hiCD24^lo CSCs (Cell Count) [1]: 410
Average Inhibition of CSCs (%) [1]: 90.57%
CD44^hiCD24^lo CSCs (%) Repeat 1 [1]: 6.48%
CD44^hiCD24^lo CSCs (%) Repeat 2 [1]: 7.99%
CD44^hiCD24^lo CSCs (%) Repeat 3 [1]: 10.90%
CD44^hiCD24^lo CSC % [2]: 3.26%
COI/Single Cells/Live/CD44^hiCD24^lo CSCs Count [2]: 162
% Viable Cells [3]: 98.47%
COI Count [3]: 6007
COI/Single Cell Count [3]: 5039
COI/Single Cells/Live Count [3]: 4962
Total Count [3]: 10000
CSC inhibition (%) [4]: 53.67%
cancer stem cell phenotype (CD44^high/CD24^low) [5]: significantly inhibited; also recorded: greatest inhibition
nuclear expression of PD-L1 [6]: inhibited
Fn/c of acetylated PD-L1 [7]: significantly reduced
total nuclear fluorescence intensity (TNFI) of acetylated PD-L1 [7]: significantly reduced
PD-L1 nuclear localization [8]: significantly inhibited
expression of CSV [9]: uniformly inhibited
expression of EGFR [10]: uniformly inhibited
expression / nuclear localization of DMNTI [11]: significantly abrogated
PD-L2 nuclear localization [12]: significantly inhibited
nuclear localization of PD-L1 [13]: significantly inhibited
